Here are results for two molecules from patent EP0435826A1, “Intravenous solutions for epilepsy” (CIBA-GEIGY AG, priority 1989, dated 1991).

Series [1] deals with Tonische Konvulsionen der Hinterextremitäten. As to the kind of experiment: Maximal electroshock test in rats (Elektroschock Test an Ratten). The series is classed as in vivo. To be noted: for ED50: Rattus norvegicus, read-out: Schutz vor dem maximalen Elektroschock ED50. An excerpt: (§1) Beispiel 5: Die akute Schutzwirkung von Carbamazepin und Oxcarbazepin nach intravenöser Verabreichung im Vergleich zur oralen wurde mit Hilfe des maximalen Elektroschocks ermittelt. Die folgenden Methoden wurden verwendet:
-Elektroschock Test an Ratten: Tonische Konvulsionen der Hinterextremitäten wurden durch Verabreichung eines Wechselstroms von 50 Hz und 36 mA während 0,63 Sekunden mit Hilfe von Cornealelektroden ausgelöst. Es wurden 10 Ratten pro Dosis und Zeiteinheit verwendet; eine Gruppe diente als Kontrolle. Die Anzahl der Ratten, die keine tonische Konvulsionen der Hinterextremitäten aufwiesen, wurde für jede Gruppe bestimmt. Die ED₅₀ wurde mit Hilfe der Regressionsanalyse nach der Methode von Spearman und Kärber berechnet.
(§2) -Elektroschock Test an Mäusen: Tonische Konvulsionen der Hinterextremitäten wurden durch Verabreichung eines Wechselstromes von 50 Hz und 18 mA während 0,2 Sekunden mittels Cornealelektroden ausgelöst. Für jede Dosis und Zeiteinheit wurden 10 Mäuse verwendet; eine Gruppe diente als Kontrolle. Die Anzahl der Mäuse, die keine tonische Konvulsionen der Hinterextremitäten zeigte, wurde für jede Gruppe bestimmt. Die ED₅₀ wurde mit Hilfe der Regressionsanalyse nach der Methode von Spearman und Kärber bestimmt. Die Injektionsvolumina für i.v. Verabreichung sind 5 ml/kg bei Mäusen und 1 ml/kg bei Ratten.
[…] Die ED₅₀-Werte wurden durch Regressionsanalyse aus drei verschiedenen Dosen (10 Ratten pro Dosis) berechnet.
A general note: The maximal electroshock test induces tonic seizures with an electrical stimulus.

For series [2] the test system is unchanged. Kind of series: Maximal electroshock test in mice (Elektroschock Test an Mäusen). To be noted: Mäuse; for ED50: Mus musculus, read-out: Schutz vor dem maximalen Elektroschock ED50. The series is classed as in vivo.
From the text: as §1, §2

Series [3] is described as follows: Solubility and properties of aqueous Hydroxypropyl-γ-cyclodextrin injection solutions. To be noted: 22°C, in 40%-iger wässriger Lösung von Hydroxypropyl-γ-cyclodextrin.
Protocol: In 100 ml dieser Lösung werden 1500 mg Carbamazepin durch Rühren bei Raumtemperatur (= 20°C) gelöst.
In 100 ml dieser Lösung werden 400,0 mg fein gemahlenes Oxcarbazepin durch Rühren bei 22°C gelöst.
[4] abbreviates: iv, 5 min, intravenös, 5 min before shock.
Setting [5] is: iv, 0.25 h, intravenös, 15 min before shock.
Where [6] appears, read: po, 0.25 h, oral (suspension in Methocel®), 15 min.
The mark [7] stands for this setting: po, 0.5 h, oral (suspension in Methocel®), 30 min.
[8] abbreviates: po, 1 h, oral (suspension in Methocel®), 60 min.
The mark [9] stands for this setting: po, 2 h, oral (suspension in Methocel®), 120 min.
Where [10] appears, read: iv, 2.5 min, intravenös, 2,5 min.
The mark [11] stands for this setting: po, 5 min, oral (suspension in Methocel®), 5 min.

What is called ED50 is the dose at which the effect has come halfway, by size or by number of responders. As to `NC(=O)N1c2ccccc2CC(=O)c2ccccc21` [Oxcarbazepin, 10,11-Dihydro-10-oxo-5-dibenz[b,f]-acepin-5-carboxamid], the ED50 came to 3.44 mg/kg in series [1] (setting [4]); 2.5 mg/kg in series [1] (setting [5]); 3.44 mg/kg in series [1] (iv, 0.5 h, intravenös, 30 min); 4.85 mg/kg in series [1] (iv, 1 h, intravenös, 60 min); 5.7 mg/kg in series [1] (iv, 2 h, intravenös, 120 min); 12.2 mg/kg in series [1] (setting [6]). Further, the ED50 came to 12.2 mg/kg in series [1] (setting [7]); 15.8 mg/kg in series [1] (setting [8]); 16.1 mg/kg in series [1] (setting [9]); 4.35 mg/kg in series [2] (setting [10]); 4.35 mg/kg in series [2] (iv, 5 min, intravenös, 5 min); 5 mg/kg in series [2] (iv, 0.25 h, intravenös, 15 min). For the same molecule, the ED50 came to 7.07 mg/kg in series [2] (iv, 0.5 h, intravenös, 30 min); 10.7 mg/kg in series [2] (iv, 1 h, intravenös, 60 min); 40.4 mg/kg in series [2] (setting [11]); 14.5 mg/kg in series [2] (setting [6]); 15.7 mg/kg in series [2] (setting [7]); 17.8 mg/kg in series [2] (setting [8]). Besides, the ED50 in series [2] (setting [9]) came to 36.3 mg/kg. For the same molecule, the “Schutz vor dem maximalen Elektroschock ED50” value in series [1] (intravenös, 15 min before shock, 15 min) is on record as 3,44 mg/kg; in series [2] (intravenös, 2,5 min, 2.5 min) it was 2,35 mg/kg; in series [2] (intravenös, 15 min), 5,00 mg/kg; in series [2] (intravenös, 60 min) it was 10,72 mg/kg. Also, the “Schutz vor dem maximalen Elektroschock” value stood at 20 % bei 30 mg/kg in series [1] (oral (suspension in Methocel®), 5 min, bei 30 mg/kg) and 20 % bei 20 mg/kg in series [2] (intravenös, 120 min, bei 20 mg/kg). Also, the Löslichkeit in series [3] is 37 mg in 10,0 ml.
As to `NC(=O)N1c2ccccc2C=Cc2ccccc21` [Carbamazepin, 5H-Dibenz[b,f]azepin-5-carboxamid], the ED50 in series [1] (setting [4]) is 2.5 mg/kg; in series [1] (setting [5]), 2.5 mg/kg; in series [1] (iv, 0.5 h, intravenös, 30 min), 2 mg/kg; in series [1] (iv, 1 h, intravenös, 60 min), 3.1 mg/kg; in series [1] (iv, 2 h, intravenös, 120 min), 4.3 mg/kg; in series [1] (po, 2.5 min, oral (suspension in Methocel®), 2,5 min) it was 60 mg/kg. Also, the ED50 in series [1] (setting [11]) was 60 mg/kg; in series [1] (setting [7]), 9.6 mg/kg; in series [1] (setting [8]), 10 mg/kg; in series [2] (setting [10]) it was 2.9 mg/kg; in series [2] (iv, 5 min, intravenös, 5 min), 2.6 mg/kg; in series [2] (iv, 0.25 h, intravenös, 15 min), 4.7 mg/kg. In addition, the ED50 is 6.8 mg/kg in series [2] (iv, 0.5 h, intravenös, 30 min); 6.5 mg/kg in series [2] (iv, 1 h, intravenös, 60 min); 17.3 mg/kg in series [2] (iv, 2 h, intravenös, 120 min); 13 mg/kg in series [2] (setting [8]); 27 mg/kg in series [2] (setting [9]). Also, the “Schutz vor dem maximalen Elektroschock” value in series [2] (oral (suspension in Methocel®), 2,5 min, bei 60 mg/kg) stood at 10 % bei 60 mg/kg.
